Data reported in patent publication US10246483B2, “Bile acid analogs as FXR/TGR5 agonists and methods of use thereof” (ENANTA PHARMACEUTICALS, INC., priority 2015, dated 2019).

Target: T1, human FXR (NR1H4) (Homo sapiens, UniProt Q96RI1)
T1 construct: host or cells: CHO (Chinese hamster ovary) reporter cells
T1 sequence (Q96RI1 1-486): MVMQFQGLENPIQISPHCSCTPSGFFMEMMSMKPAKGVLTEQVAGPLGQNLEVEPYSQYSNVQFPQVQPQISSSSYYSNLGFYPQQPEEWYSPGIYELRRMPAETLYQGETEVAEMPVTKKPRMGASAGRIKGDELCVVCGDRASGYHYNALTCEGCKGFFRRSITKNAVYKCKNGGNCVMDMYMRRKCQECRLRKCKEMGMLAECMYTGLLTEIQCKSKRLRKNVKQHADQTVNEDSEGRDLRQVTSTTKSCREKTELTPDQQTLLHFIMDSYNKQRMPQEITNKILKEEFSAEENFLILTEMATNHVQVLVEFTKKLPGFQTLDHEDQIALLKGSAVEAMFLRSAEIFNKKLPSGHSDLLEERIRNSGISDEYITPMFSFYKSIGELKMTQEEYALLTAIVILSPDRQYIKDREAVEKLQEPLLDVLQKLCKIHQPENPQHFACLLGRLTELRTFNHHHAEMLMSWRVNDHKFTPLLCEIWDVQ
Test: Human FXR (NR1H4) reporter assay (Gal4 promoter driven transactivation, luciferase)
Assay type: cell-based
Description: Human FXR (NR1H4) Assay Determination of a ligand mediated Gal4 promoter driven transactivation to quantify ligand binding mediated activation of FXR. FXR Reporter Assay kit purchased from Indigo Bioscience (Catalogue number: IB00601) to determine the potency and efficacy of compound developed by Enanta that can induce FXR activation. The principle application of this reporter assay system is to quantify functional activity of human FXR. The assay utilizes non-human mammalian cells, CHO (Chinese hamster ovary) cells engineered to express human NR1H4 protein (referred to as FXR). Reporter cells also incorporate the cDNA encoding beetle luciferase which catalyzes the substrates and yields photon emission. Luminescence intensity of the reaction is quantified using a plate-reading luminometer, Envision. […] Thus, quantifying changes in luciferase expression in the treated reporter cells provides a sensitive surrogate measure of the changes in FXR activity. […] Thirty minutes before intending to quantify FXR activity, remove Detection Substrate and Detection Buffer from the refrigerator and place them in a low-light area so that they may equilibrate to room temperature. […] Set the instrument (Envision) to perform a single 5 second “plate shake” prior to reading the first assay well. Read time may be 0.5 second (500 mSec) per well.

CC[C@@H]1C2C[C@H](O)CCC2(C)[C@H]2CCC3(C)C([C@H](C)CCC(=O)NC(=N)Nc4ccccc4)CC[C@H]3[C@@H]2[C@@H]1O (some centres unmarked) [Example 1]
EC50: 100 to 1000 nM
Efficacy (%) (CHO reporter cells expressing human NR1H4, normalized to CDCA set as 100%): 248%
